The source of these data is US4396606A, “Novel polypeptide analgesics” (Addiction Research Foundation, priority 1979, dated 1983).

Series [1] concerns guinea pig ileum myenteric plexus-longitudinal muscle preparation. The series is described as follows: guinea pig ileum myenteric plexus-longitudinal muscle preparation bioassay. The format is cell-based. Particulars: for IC50: inhibition of electrically stimulated twitch, geometric mean of several muscle strips. The source says: Starting material was 100 g MSH concentrate, the second oxycellulose adsorbate in commercial ACTH production from procine pituitary glands (Schally et al (1962) Endocrinology 71, 164). The initial steps, with 25 g batches, have been described in Lowney et al (1979) Life Sci. 24, 2377: extraction and back-extraction with butanol; separation from β-endorphin on Bio-Gel P6; preparative reversed-phase HPLC on C18 columns, first with a methanol gradient in trifluoroacetic acid (TFA), then with an acetonitrile gradient in Tris buffer at neutrality, followed by elution of the active material with TFA. Every step was monitored by assay on the guinea pig ileum myenteric plexus-longitudinal muscle preparation. Kosterlitz & Waterfled (1975) Ann. Rev. Pharmacol. 15, 29; Schulz & Goldstein (1973) Brit. J. Pharmacol. 48, 655.
(§1) The guinea pig ileum myenteric plexus-longitudinal muscle preparation was used as described in Kosterlitz et al, supra, and Schulz & Goldstein, supra. […] Geometric means of IC50 values from several muscle strips were obtained, with standard errors in log units. Kd values for naloxone as an antagonist were determined from the ratio of IC50 values in the presence and absence of a fixed naloxone concentration. The mouse vas deferens was used as described in Hughes at al (1975) Brit. J. Pharmacol. 53, 371. IC50 and naloxone Kd values were determined as above.
(§2) Effects of dynorphin-(1-13) in two bioassays. […] Naloxone Kd is the apparent dissociation constant of the antagonist, computed from the equation Kd =[…]/(D.R.-1), derived from the mass law for competitive antagonism, where C=concentration of naloxone (here 100 nM), and D.R.=dose ratio of agonist, the ratio of IC50 doses in the presence and absence of the antagonist. The same procedures were followed with the mouse vas deferens. IC50 values are geometric means, with standard errors in log units, number of tissue preparations in parentheses. Kd determinations were based on four tissue preparations. RX-1 is des-arg^6 -dynorphin-(1-13); RS-2 has gly^6 insertion in dynorphin-(1-13).

For the next series, the system named is mouse vas deferens. The series is described as follows: mouse vas deferens bioassay. In kind it is cell-based. Conditions: for IC50: inhibition of electrically stimulated twitch, geometric mean; for Potency in mouse vas deferens / potency in guinea pig ileum: ratio of potencies in the two bioassays. Here is the method:
as §1, §2

A further series has as its target rat brain membranes. Nature of the series: radioreceptor binding assay. Particulars: for IC50: 1 nM radioligand, 1 h at 23°. Here is the method:
The radioreceptor binding assay used well washed rat brain membranes that had been incubated for 30 min at 37° with 100 mM NaCl to remove bound endogenous ligands. Blume (1978) Proc. Natl. Acad. Sci. 75, 1713. Several radioligands (1 nM final concentration) and competing ligands were tested. Competing ligands were added to the membrane suspension in Tris buffer, pH 7.4 at 23°, and radioligand was added immediately thereafter. Assay volume was 500 μl. After incubation (1 h, 23°), the mixture was chilled, filtered, washed twice, and counted.
Washed membranes from rat brain homogenate, 1 h incubation at 23°. Data are IC50 values (nM) from complete log dose-inhibition curves for inhibition of stereospecific binding of the various radioligands. […] DADLE=D-ala^2 -D-leu^5 -enkephalin. DHM=dihydromorphine.

For series [2], the system named is antiserum to dynorphin (1-13)-thyroglobulin conjugate. The series is described as follows: dynorphin radioimmunoassay. In kind it is binding, rabbit. The source says: The subject dynorphin was used for the development of immunoassays, illustrated particularly by a radioimmunoassay. For carrying out the immunoassay, it is necessary to prepare antigens which specifically recognize the oligopeptide, in this case dynorphin. To prepare antigen conjugates, thyroglobulin was conjugated to synthetic dynorphin (1-13). The procedure for preparing the antigen conjugate, injecting the antigen conjugate into animals and isolating the antisera is described as follows.
Synthetic dynorphin (1-13) (3.25 μmoles, 5.2 mg) was dissolved in 2 ml of 100 mM sodium phosphate buffer at neutrality. To the mixture was added with agitation 10^5 cpm of ^125 I-dynorphin to serve as a tracer. After addition of the tracer, 26 mg of thyroglobulin (bovine type 1, Sigma) was added and the mixture cooled in an ice-bath after the thyroglobulin dissolved. A 1:100 dilution with cold water of glutaraldehyde (Sigma, Grade 1, 25% aqueous solution) (1 ml) was added dropwise with stirring in a cold room at 4° and agitation continued for 30 min., followed by warming to room temperature and continuing the stirring for 3 hrs.
Based on the coupling efficiency calculated from the cpm of the dialysis bag residue, after lyophilizing, sufficient of the conjugate was employed to provide 50-100 μg of coupled oligopeptide per rabbit. For six rabbits, the dry material was added to 4 ml of 0.9% NaCl, followed by 4 ml of Freund's incomplete adjuvant. The mixture was uniformly dispersed by drawing up and down in a syringe and needle for 30 mins., the mixture divided into six aliquots and approximately 10 to 12 interdermal injections made in a shaved New Zealand White X San Juan hybrid rabbit. Booster injections were made at two week intervals, with a bleeding taken 10 days after the fourth booster shot, 50 ml of blood being removed from the ear artery, allowed to clot, the serum removed and stored frozen.
In small borosilicate tubes was added 25 μl dynorphin (equimolar to Na ^125 I), 50 μl Na ^125 I, and 20 μl chloramine-T and the mixture allowed to react at room temperature for 30-45 mins. The reaction was terminated by adding 100 μl of sodium metabisulfite. After washing a Sephadex G-15 column (1.2×35 cm) with 0.25 M acetic acid and 0.1% bovine serum albumin, the reaction mixture was added and eluted with the same solvent, collecting 1 ml fractions at a rate of 0.3 ml/min, collecting a total of 50 fractions.
Antiserum: A 1:10 dilution of the antiserum in 50 mM sodium phosphate buffer, pH7.4, containing 50 mM NaCl was diluted 1:10^4 with buffer B;
Dynorphin (1-13) standard: Standards were prepared by taking 10 μl of a 10 mM stock solution in water and adding 990 μl of methanolic HCl to make a […] dynorphin solution followed by 1:100 dilutions to provide the desired series.
^125 I-dynorphin (1-13) trace: The trace stored in 0.25 M acetic acid containing 0.1% BSA was diluted to about 5,000 cpm/100 μl with buffer B.
The procedure for the assay was as follows: All solutions were in ice at the outset and all operations were carried out in ice. In a […] borosilicate glass tube was added in the following order 100 μl of dynorphin (1-13) standard or test sample in methanolic HCl; 100 μl of the antiserum dilution; and 100 μl of the trace, followed by incubation at 0°-4° for 24 hrs. Incubation was terminated with a charcoal mixture prepared by mixing 3 g Norit A, 0.3 g dextran, 15 ml horse serum and the mixture brought to 100 ml with buffer A and mixed for 10 min in a cold room before use. To each incubation tube was added 1 ml of a charcoal mixture, the mixture vortexed followed by incubation for 5 min in a cold room and then centifuged at 5000×g for 15 min in a Beckman Model J6B (4200 rpm). To a 13×100 mm borosilicate glass tube was transferred 850 μl of the supernatant and the tube counted for 5 min in a gamma counter.

Series [3] can be described thus: treatment with cyanogen bromide.
[4] abbreviates: ^a = unusually shallow slope, read-out: IC50 for inhibition of stereospecific binding, radioligand 3H-DHM.
Setting [5] is: ^a = unusually shallow slope, read-out: IC50 for inhibition of stereospecific binding, radioligand 3H-DADLE.

Like-named read-outs stand apart in the source and are kept apart here.

Regarding `Oc1ccc2c3c1O[C@H]1[C@@H](O)C=C[C@H]4[C@@H](C2)NCC[C@@]341` [Normorphine], the IC50 is 120 nM in series [1] (Cavia porcellus); 230 nM in the series with mouse vas deferens (Mus musculus); 5 nM at rat brain membranes (setting [4]); 260 nM on rat brain membranes (with Na, read-out: IC50 for inhibition of stereospecific binding, radioligand 3H-naloxone +Na); 21 nM on rat brain membranes (without Na, read-out: IC50 for inhibition of stereospecific binding, radioligand 3H-naloxone -Na).
Turning to `C=CCN1CC[C@@]23CCCC[C@@H]2[C@@H]1Cc1ccc(O)cc13` [dextrallorphan], the “effect on radioligand binding” value in the series on rat brain membranes (1 μM competing ligand) is “without effect”.
On to `C=CCN1CC[C@]23CCCC[C@H]2[C@H]1Cc1ccc(O)cc13` [levallorphan], for which the “displacement of radioligand (stereospecific saturable binding)” value in the series on rat brain membranes (1 μM final concentration) is on record as “about 70 % of total binding”.
Take “H-tyr-gly-gly-phe-leu-arg-arg-ile-arg-pro-lys-leu-lys-OH [Dynorphin-(1-13)]”: in series [1] (guinea pig ileum test), the “potency relative to leu-enkephalin” value is reported as “about 1000 x”. The “potency relative to normorphine” value in series [1] (guinea pig ileum test) was “about 350 x”. In series [1] (guinea pig ileum test), the “potency relative to β-endorphin” value is “about 30 x”. The half-maximal inhibitory concentration (IC50) was found to be 0.63 nM in series [1], 7.5 nM in the series with mouse vas deferens, 43 nM at rat brain membranes (setting [5]) and 16 nM on rat brain membranes (setting [4]). For the same molecule, the “persistence in the guinea pig ileum test” value in series [1] (unlike β-endorphin) was “long persistence”. The “Potency in mouse vas deferens / potency in guinea pig ileum” value in the series on mouse vas deferens is recorded as 0.08. The B/Bo is on record as 15 in series [2] (1 × 10^-13 moles dynorphin per assay tube); 45 in series [2] (1 × 10^-14 moles dynorphin per assay tube); 85 in series [2] (1 × 10^-15 moles dynorphin per assay tube); 100 in series [2] (1 × 10^-16 moles dynorphin per assay tube); 5 in series [2] (5 × 10^-13 moles dynorphin per assay tube); 30 in series [2] (5 × 10^-14 moles dynorphin per assay tube). Moreover, the B/Bo in series [2] (5 × 10^-15 moles dynorphin per assay tube) came to 75; in series [2] (5 × 10^-16 moles dynorphin per assay tube), 100. Besides, in series [3], the “resistance to treatment with cyanogen bromide” value was “relatively resistant”.
Take βc -endorphin [reference compound]: the IC50 came to 34 nM in series [1], 2.1 nM on rat brain membranes (setting [5]) and 1.8 nM at rat brain membranes (setting [4]). Moreover, in the series on mouse vas deferens, the “Potency in mouse vas deferens / potency in guinea pig ileum” value stood at 1.5.
